Where no end group is shown, it is not given here.

Three molecules from patent US20250101062A1, “ANTIMICROBIAL PEPTIDES” (Board of Regents of the University of Nebraska, priority 2023, published 2025) can be followed below.

Holding throughout (assay type): cell-based, Staphylococcus aureus
Test [1] concerns MRSA USA300. In words: microbe, parasite or virus in culture. The settings on record: 17 passages at sub-MIC. Here is the method:
The experiment was conducted as described (Lakshmaiah et al. (2020) Proc. Natl. Acad. Sci., 117:19446-19454). Briefly, MRSA USA300 was grown to the exponential phase in MHB and diluted to OD600 0.001 (˜10^5 CFU/mL). Aliquots of 90 μL were added to a 96-well polystyrene microplate (Costar, Corning, NY) containing 10 μL of serially diluted LL-37mini, nafcillin, or daptomycin. After overnight incubation at 37° C., the plates were read at 600 nm using a ChroMate™ microplate reader (GMI, Ramsey, MN). Untreated bacterial culture and medium were included as untreated control and blank, respectively. The MIC is the lowest peptide concentration that inhibited the bacterial growth. The wells with sub-MIC levels of the peptides that retained growth approximately half the growth of the control wells were reinoculated in fresh MHB with sub-MIC concertation of peptides or antibiotics to attain exponential phase for MIC determination. In total, 17 passages of the bacterial cultures were conducted. A rapid increase in MIC is an indication of antibiotic resistance.

The test system of test [2] is MRSA USA300. Description: Membrane depolarization (DiBAC4(3)). Here is the method: An overnight culture of MRSA USA300 was inoculated into TSB and grown to an exponential phase. Bacteria were washed with 1×PBS, resuspended in twice the volume of 1×PBS containing 25 mM glucose, and incubated at 37° C. for 15 minutes. Then, 500 nM (final concentration) of DiBAC4 (3) bis(1, 3-dibutylbarbituric acid) trimethine oxonol (ANASPEC, CA) was added, and the mixture was vortexed gently. Aliquots of 90 μL of the energized bacteria solution were loaded into the 96-well plates (Corning COSTAR, AZ) and placed in a FLUOstar® Omega microplate reader (BMG LABTECH, NC). Fluorescence was read for 20 minutes at excitation and emission wavelengths of 485 and 520 nm, respectively. Then, 10 μL of peptide solutions was added, and fluorescence readings were recorded for 40 minutes. Triton® X-100 (0.1%) was used as the positive control.
Bacterial membrane depolarization was conducted (Marks, et al. (2013) PLoS One 8(5):e63158). […] Aliquots of 90 μL of the energized bacteria solution were loaded to the 96 well plates (Corning COSTAR, AZ) and placed in a FLUOstar® Omega microplate reader (BMG LABTECH, NC). Fluorescence was read for 20 minutes at excitation and emission wavelengths of 485 nm and 520 nm, respectively. Then, 10 μL of peptide solutions was added and fluorescence readings were recorded for 40 minutes. […]

Test [3] relates to S. aureus USA300 LAC biofilms. Description: Disruption of preformed biofilms in vitro (XTT). Here is the method: Effects of Peptides on Established Biofilms in Vitro. Bacteria (S. aureus USA300 LAC and E. coli E423-17) were grown in rich TSB media overnight. A second inoculation was made the next day to reach an exponential phase (OD600˜0.4). Microtiter plates (96 wells, Corning Costar Cat no. 3595), after aliquoting with 180 μL of the culture to each well, were incubated at 37° C. for 24 hours to form biofilms in rich TSB. Media were aspirated post incubation, and the attached biofilms were washed with 1×PBS to remove the planktonic bacteria. […] Biofilms treated with water served as the positive control, while media without bacterial inoculation served as the negative control. Live cells in the biofilms were quantitated using XTT as described above. Absorbance was read at 450 nm (only media with XTT containing wells served as the blank) using a ChroMate™ microtiter plate reader. Percentage biofilm growth for the peptide was plotted by assuming 100% biofilm growth in bacterial control alone. The data were represented as mean±SD; plots were generated using GraphPad prism 7, where * indicates p<0.05, **p<0.01, and ***P<0.001, and ****p<0.0001 (one-way analyses of variance).
LL-37 is known to inhibit bacterial biofilms (Overhage, et al. (2008) Infect. Immun., 76:4176-4182). However, it was unable to disrupt preformed MRSA biofilms in rich media (Mishra, et al. (2016) ACS Med. Chem. Lett., 7:117-121). Next, it was determined whether the diluted MHB medium could be useful to detect biofilm-disrupting activity for LL-37 against MRSA. An established procedure (Mishra, et al. (2016) ACS Med. Chem. Lett., 7:117-121; Duplantier, et al. (2013) Front. Immunol., 4:143) was used wherein biofilms were formed and washed as usual to remove planktonic cells. The biofilms were then treated with peptides in 12.5% MHB for 24 hours. Finally, live cells were quantified with XTT (ATCC). FIG. 2 compares the levels of live cells of MRSA in the preformed biofilms after 24 hour treatment. […] Of note is a similar pattern for both peptides in 12.5% MHB treated at various concentrations.
Bacteria (S. aureus USA300 LAC or P. aeruginosa E411-17) were grown up in TSB media overnight. A second inoculation was made the next day to reach an exponential phase (OD600˜0.4). Microtiter plates (96 wells, Corning Costar Cat No. 3595), after aliquoting with 180 μL of the culture to each well, were incubated at 37° C. for 24 hours to form biofilms in rich TSB. Media were aspirated post incubation and the attached biofilms were washed with 1×PBS to remove the planktonic bacteria. […] Biofilms treated with water served as the positive control while media without bacterial inoculation served as the negative control. Live cells in the biofilms were quantitated using the XTT as described above. Absorbance was read at 450 nm (only media with XTT containing wells served as the blank) using a ChroMate® microtiter plate reader. Percentage biofilm growth (the plot legend is antibiofilm activity) for the peptides was plotted by assuming 100% biofilm growth in bacterial control alone. The data were represented as mean±SD, plots were generated using GraphPad prism 7, where * indicates p<0.05, ** p<0.01, and ***P<0.001, and ****p<0.0001 (one-way analyses of variance).

Regarding `CCCCCCCCCC(=O)N[C@@H](Cc1c[nH]c2ccccc12)C(=O)N[C@H](CC(N)=O)C(=O)N[C@@H](CC(=O)O)C(=O)N[C@@H]1C(=O)NCC(=O)N[C@@H](CCCN)C(=O)N[C@@H](CC(=O)O)C(=O)N[C@H](C)C(=O)N[C@@H](CC(=O)O)C(=O)NCC(=O)N[C@H](CO)C(=O)N[C@@H]([C@H](C)CC(=O)O)C(=O)N[C@@H](CC(=O)c2ccccc2N)C(=O)O[C@@H]1C` [Daptomycin], in the test with MRSA USA300 [1], the resistance development entry is “did not develop resistance”.

In the case of `CC[C@H](C)[C@H](NC(=O)[C@H](CCCCN)NC(=O)[C@H](CCC(=O)O)NC(=O)[C@H](CCCCN)NC(=O)[C@H](CO)NC(=O)[C@H](CCCCN)NC(=O)[C@H](CCCNC(=N)N)NC(=O)[C@H](Cc1ccccc1)NC(=O)[C@H](Cc1ccccc1)NC(=O)[C@H](CC(=O)O)NC(=O)CNC(=O)[C@H](CC(C)C)NC(=O)[C@@H](N)CC(C)C)C(=O)NCC(=O)N[C@@H](CCCCN)C(=O)N[C@@H](CCC(=O)O)C(=O)N[C@@H](Cc1ccccc1)C(=O)N[C@@H](CCCCN)C(=O)N[C@@H](CCCNC(=N)N)C(=O)N[C@H](C(=O)N[C@H](C(=O)N[C@@H](CCC(N)=O)C(=O)N[C@@H](CCCNC(=N)N)C(=O)N[C@H](C(=O)N[C@@H](CCCCN)C(=O)N[C@@H](CC(=O)O)C(=O)N[C@@H](Cc1ccccc1)C(=O)N[C@@H](CC(C)C)C(=O)N[C@@H](CCCNC(=N)N)C(=O)N[C@@H](CC(N)=O)C(=O)N[C@@H](CC(C)C)C(=O)N[C@H](C(=O)N1CCC[C@H]1C(=O)N[C@@H](CCCNC(=N)N)C(=O)N[C@H](C(=O)N[C@@H](CCC(=O)O)C(=O)N[C@@H](CO)C(=O)O)[C@@H](C)O)C(C)C)[C@@H](C)CC)C(C)C)[C@@H](C)CC` [LL-37], the membrane depolarization entry in the test with MRSA USA300 [2] (Example 2, PBS with glucose) is reported as “most powerful in membrane depolarization”. The “peptide concentration showing biofilm disruption” value in test [3] (24 h preformed biofilm, 12.5% MHB) is 32 µM. Further, the antibiofilm activity result in test [3] (24 h preformed biofilm, 100% MHB) is given as “essentially no antibiofilm activity”.

Take RRWWRWWR-NH2 [W543]: in the test with MRSA USA300 [2] (Example 1, highest concentration tested), the membrane depolarization entry is reported as “did not show a clear effect”. Moreover, the “effect on preformed biofilms” value is given as “Better disruptive effects than daptomycin” in test [3] (48 or 72 hour preformed biofilms) and “essentially eliminated” in test [3] (24 hours preformed biofilms, 32 μM). The resistance development entry in the test with MRSA USA300 [1] is reported as “essentially no change in the MIC values”.
